Laboratory results published in ChEMBL document CHEMBL5244269, “Improving metabolic stability and removing aldehyde oxidase liability in a 5-azaquinazoline series of IRAK4 inhibitors” (Bioorg Med Chem, 2020).

How the values were obtained:
SUD4 [1] = test: Growth inhibition of human SU-DHL-4 cells at 10 uM incubated for 3 days (reference value: -1%); format: functional; details: SU-DHL-4, 72 h, time 3 day, read-out: GI
OCI-Ly10 [2] = test: Growth inhibition of human OCILY10 cells at 0.17 uM incubated for 3 days (Rvb= -2%); format: functional; details: OCI-Ly10, 72 h, time 3 day, read-out: GI
OCI-Ly10 [3] = test: Growth inhibition of human OCILY10 cells at 10 uM incubated for 3 days (reference value: -2%); format: functional; details: OCI-Ly10, 72 h, time 3 day, read-out: GI
OCI-Ly10 [4] = test: Growth inhibition of human OCILY10 cells at 0.33 uM incubated for 3 days (reference value: -2%); format: functional; details: OCI-Ly10, 72 h, time 3 day, read-out: GI
[5] = Volume of distribution at steady state in cynomolgus monkey at 1 mg/kg, iv; format: ADME, organism-based, Macaca fascicularis; details: in vivo, read-out: Vdss
[6] = target: T1, Receptor-type tyrosine-protein kinase FLT3 (Homo sapiens, UniProt P36888); test: Inhibition of FLT3 (unknown origin) in presence of 600 uM ATP
T1 sequence (P36888 whole entry): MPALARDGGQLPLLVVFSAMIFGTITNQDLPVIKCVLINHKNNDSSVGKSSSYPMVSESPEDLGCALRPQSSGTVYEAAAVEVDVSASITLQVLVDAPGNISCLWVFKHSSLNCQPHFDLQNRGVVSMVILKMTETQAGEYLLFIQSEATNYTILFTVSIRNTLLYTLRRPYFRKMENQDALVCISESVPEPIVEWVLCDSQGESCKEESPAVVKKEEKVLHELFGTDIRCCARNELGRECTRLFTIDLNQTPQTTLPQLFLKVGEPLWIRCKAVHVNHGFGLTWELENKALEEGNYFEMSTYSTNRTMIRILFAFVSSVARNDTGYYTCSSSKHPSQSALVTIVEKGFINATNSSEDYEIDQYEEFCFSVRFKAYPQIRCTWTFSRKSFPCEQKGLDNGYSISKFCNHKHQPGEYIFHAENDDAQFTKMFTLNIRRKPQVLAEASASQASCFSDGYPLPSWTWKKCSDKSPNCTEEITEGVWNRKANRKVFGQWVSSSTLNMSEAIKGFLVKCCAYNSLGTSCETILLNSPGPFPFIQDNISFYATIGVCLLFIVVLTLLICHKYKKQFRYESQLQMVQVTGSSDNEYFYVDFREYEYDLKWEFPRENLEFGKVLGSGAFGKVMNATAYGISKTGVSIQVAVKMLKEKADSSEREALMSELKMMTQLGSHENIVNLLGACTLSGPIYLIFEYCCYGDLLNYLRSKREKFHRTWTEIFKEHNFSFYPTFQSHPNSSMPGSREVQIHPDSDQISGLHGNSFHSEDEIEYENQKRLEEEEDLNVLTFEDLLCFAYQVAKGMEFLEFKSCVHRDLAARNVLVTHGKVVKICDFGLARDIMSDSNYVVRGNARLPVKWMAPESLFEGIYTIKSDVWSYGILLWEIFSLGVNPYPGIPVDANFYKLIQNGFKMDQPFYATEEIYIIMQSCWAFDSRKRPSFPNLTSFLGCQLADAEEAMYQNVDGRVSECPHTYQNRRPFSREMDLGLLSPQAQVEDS

[7] = Metabolic stability in dog liver microsomes assessed as intrinsic clearance; format: ADME, Canis lupus familiaris, Microsome; details: read-out: CLH
[8] = Terminal half life in CD1 mouse at 0.5 mg/kg, iv; format: ADME, organism-based; details: in vivo, read-out: beta t1/2 (converted)
[9] = Plasma protein binding in mouse assessed as free fraction by equilibrium dialysis analysis; format: ADME, cell-free
[10] = Metabolic stability in minipig liver microsomes assessed as intrinsic clearance; format: ADME, Sus scrofa domesticus, Microsome; details: pig, read-out: CLH
OCI-Ly10 [11] = test: Growth inhibition of human OCILY10 cells at 0.17 uM incubated for 3 days (Rvb= -3%); format: functional; details: OCI-Ly10, 72 h, time 3 day, read-out: GI
[12] = target: T2, Phosphatidylinositol 4,5-bisphosphate 3-kinase catalytic subunit delta isoform (Homo sapiens, UniProt O00329); test: Inhibition of PI3Kdelta (unknown origin) in presence of […] uM ATP
T2 sequence (O00329 whole entry): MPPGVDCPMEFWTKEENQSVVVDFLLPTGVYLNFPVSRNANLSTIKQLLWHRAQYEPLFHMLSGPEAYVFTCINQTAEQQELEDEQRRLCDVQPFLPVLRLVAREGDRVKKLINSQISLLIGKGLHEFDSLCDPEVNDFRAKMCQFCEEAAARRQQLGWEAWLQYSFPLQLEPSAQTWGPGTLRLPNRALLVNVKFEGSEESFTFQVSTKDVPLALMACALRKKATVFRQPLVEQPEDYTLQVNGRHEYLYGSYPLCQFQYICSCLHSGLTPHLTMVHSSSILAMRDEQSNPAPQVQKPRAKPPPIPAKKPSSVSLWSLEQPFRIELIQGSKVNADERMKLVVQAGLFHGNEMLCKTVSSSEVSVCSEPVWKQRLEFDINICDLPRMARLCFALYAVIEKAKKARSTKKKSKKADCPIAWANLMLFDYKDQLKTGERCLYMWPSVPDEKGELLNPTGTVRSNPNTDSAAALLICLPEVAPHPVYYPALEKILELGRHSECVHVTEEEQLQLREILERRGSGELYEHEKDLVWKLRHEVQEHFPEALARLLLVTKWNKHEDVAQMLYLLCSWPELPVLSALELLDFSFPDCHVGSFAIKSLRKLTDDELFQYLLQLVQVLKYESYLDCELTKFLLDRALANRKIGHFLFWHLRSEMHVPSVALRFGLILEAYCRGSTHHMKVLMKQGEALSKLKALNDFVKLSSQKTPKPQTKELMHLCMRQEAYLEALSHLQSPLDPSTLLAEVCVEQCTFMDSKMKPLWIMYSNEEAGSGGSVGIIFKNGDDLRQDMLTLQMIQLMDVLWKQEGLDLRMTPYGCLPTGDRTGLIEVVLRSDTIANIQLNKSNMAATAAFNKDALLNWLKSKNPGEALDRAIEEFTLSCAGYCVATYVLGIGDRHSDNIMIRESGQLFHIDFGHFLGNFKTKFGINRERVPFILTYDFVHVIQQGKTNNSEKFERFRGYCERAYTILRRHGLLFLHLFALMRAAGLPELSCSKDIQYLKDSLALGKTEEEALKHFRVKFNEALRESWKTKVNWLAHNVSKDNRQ

[13] = Metabolic stability in human cytosol assessed as intrinsic clearance; format: ADME, subcellular
[14] = Volume of distribution at steady state in Han Wistar rat at 2 mg/kg, po or 1 mg/kg, iv; format: ADME, organism-based; details: in vivo
[15] = Metabolic stability in dog hepatocytes assessed as intrinsic clearance measured per 10^6 cells; format: ADME, cell-based, Canis lupus familiaris, Hepatocyte; details: read-out: CLH
[16] = Plasma protein binding in monkey assessed as free fraction by equilibrium dialysis analysis; format: ADME, cell-free, Macaca mulatta; details: rhesus monkey
[17] = Efflux ratio of apparent permeability basolateral to apical side over apical to basolateral side in human Caco-2 cells measured for 360 mins by liquid scintillation counting based analysis; format: ADME, cell-based
SUD4 [18] = test: Growth inhibition of human SU-DHL-4 cells at 1.7 uM incubated for 3 days (reference value: 2%); format: functional; details: SU-DHL-4, 72 h, time 3 day, read-out: GI
SUD4 [19] = test: Growth inhibition of human SU-DHL-4 cells at 10 uM incubated for 3 days (reference value: 2%); format: functional; details: SU-DHL-4, 72 h, time 3 day, read-out: GI
SUD4 [20] = test: Growth inhibition of human SU-DHL-4 cells at 0.33 uM incubated for 3 days (reference value: 2%); format: functional; details: SU-DHL-4, 72 h, time 3 day, read-out: GI

Compound CC[C@@H]1[C@H](F)C(=O)N[C@@H]1COc1nccc2cc(C(N)=O)c(OC)cc12 [ZIMLOVISERTIB] has an inhibition of growth at 10 µM (SUD4 [1]) of 2%, an inhibition of growth at 0.17 µM (OCI-Ly10 [2]) of 5% and an inhibition of growth at 10 µM (OCI-Ly10 [3]) of 63%. For the same compound, the inhibition of growth at 0.33 µM (OCI-Ly10 [4]) was 5%.
In the case of Cc1ncc(-c2nc3c(OC4(C)CC4)nc(Nc4cnn(C5CCN(C)CC5)c4)nc3cc2F)cn1, the Vd [5] is reported as 8.6 L/kg, the IC50 [6] is reported as > 9000 nM and the microsomal CLint [7] is reported as 21 µL/min/mg. The half-life [8] was 4.2 h, the inhibition of growth at 10 µM (SUD4 [1]) was 0% and the fraction unbound [9] was 0.16. For the same compound, the microsomal CLint [10] was 18 µL/min/mg, the inhibition of growth at 0.17 µM (OCI-Ly10 [11]) was 1% and the IC50 [12] was 53 nM. For the same compound, the microsomal CLint [13] was < 0.5 µL/min/mg, the Vdss [14] was 4.3 L/kg and the hepatocyte CLint [15] was 4.5 µL/min/1e6 cells. For the same compound, the fraction unbound [16] was 0.33 and the efflux ratio at 6 h [17] was 1.4.
With Cc1ncc(-c2nc3c(NC(C)C)nc(Nc4cnn(C5CC6(C5)CN(C)C6)c4)nc3cc2F)cn1 the inhibition of growth at 1.7 µM (SUD4 [18]) was 3%, the inhibition of growth at 10 µM (SUD4 [19]) was 6% and the IC50 [6] was 1500 nM. For the same compound, the inhibition of growth at 0.17 µM (OCI-Ly10 [11]) was 5%, the IC50 [12] was 230 nM and the inhibition of growth at 0.33 µM (SUD4 [20]) was 3%. For the same compound, the efflux ratio at 6 h [17] was 4.2.
